Data taken from patent publication US20180346731A1, “Formation of Stable Pyranoanthocyanins, and Uses Thereof as Sources of Natural Color” (Ohio State Innovation Foundation, priority 2017, published 2018).

Legend:
Assay type in all cases: physicochemical
[1] = Anthocyanin survival of control treatments at pH 2.5 (uHPLC AUC 500-520 nm); settings: pH 2.5 acidified water, no pyruvic acid, 25° C., day 31
Description: FIG. 10: Pyranoanthocyanin yield for anthocyanins (500 μM) subjected to pyruvic acid treatment (×100 M ratio) and anthocyanin survival of control treatments at pH 2.5 acidified water at day 7, 14, and 31. Yield defined as (AUC500-520 nm of PACN at tn/AUC500-520 nm of ACN @t0)*100. Survival defined as (AUC500-520 nm of ACN at tn/AUC500-520 nm of ACN @ t0)*100. Values shown are means (n=3) and bars represent standard deviation.
A uHPLC system (Shimadzu Nexera-i LC-2040C, Maryland, U.S.) coupled with tandem MS (Shimadzu LCMS-8040, Maryland, U.S.) was used in evaluating initial anthocyanin purity and monitoring changes in anthocyanins with and without pyruvic acid treatment over time. A 0.4 mL/min flow rate was used on a Pinnacle DB (Restek Corporation, Bellefonte, Pa.) C18 Column (1.9 μm particle size, 50×2.1 mm length). The column oven was set at 40° C. The following gradient of solvent A (4.5% formic acid) and B (100% acetonitrile) was used: 0% B for the first minute, ramped to 15% B by 10 min. This method was effective for separation of the formed pyranoanthocyanin from anthocyanin for all isolates except cy3rut which coeluted with the formed pyranoanthocyanin. This was observed through MS-MS data. […]
Quantification of pigments was conducted on day 0, 3, 7, 14, and 31 using a standard curve of cyanidin-3-glucoside (Sigma Aldrich, St. Louis, Mo., U.S.) run under the same conditions used for isolates. Molar absorptivities of anthocyanins and carboxypyranoanthocyanidins have been reported as being relatively similar and were thought to provide a basis of confidence in using AUC500-520 nm as a quantitative measure of pyranoanthocyanin yield.
Prior to dilution, the concentrations of the isolated pigment extracts were determined by the pH differential method for subsequent dilution to known concentrations. The isolates were then diluted to 500 μM (expressed as Cyanidin-3-glucoside equivalents) in pH 2.5 deionized water (previously adjusted with HCl) which contained 0.1% potassium sorbate (w/v) and 0.1% sodium benzoate (w/v) to function as preservative agents during storage. […]

[2] = UV-Vis spectra of anthocyanin isolates treated with pyruvic acid, 31 days storage; settings: for decrease in maximum absorbance: 500 μM, pyruvic acid ×100 M ratio, pH 2.5, 25° C., after 31 days
Description: (§1) Prior to dilution, the concentrations of the isolated pigment extracts were determined by the pH differential method for subsequent dilution to known concentrations. The isolates were then diluted to 500 μM (expressed as Cyanidin-3-glucoside equivalents) in pH 2.5 deionized water (previously adjusted with HCl) which contained 0.1% potassium sorbate (w/v) and 0.1% sodium benzoate (w/v) to function as preservative agents during storage. A pH of 2.5 was selected as a compromise of several variables: the flavylium form was predominant, the effect of pKh was minimized, and it is a relevant pH for wines. It has been reported that the pKh's of cy3 gal, cy3xylgal, and cy3xylglugal ranges from 3.01 to 3.26. Working at pH 2.5 largely avoided the effect of different equilibrium forms while also maintaining a pH that is similar to that of wines where these compounds are commonly formed. Control samples of each isolate were prepared and contained no pyruvic acid. For treatments containing pyruvic acid, a previously diluted pyruvic acid standard (pyruvic acid in the same pH 2.5 water containing preservatives) was added to obtain concentrations 100× the molar ratio of anthocyanins (50 mM of pyruvic acid). All treatments were brought to the same final volume by the addition of more pH 2.5 water. Samples were filtered through a 0.2 μm membrane into 1.5 mL glass HPLC vials. Vials were capped and stored in an incubator in the dark at 25° C. for a 31 day duration (Fisher Scientific, Waltham, Mass., U.S.). All treatments were prepared in triplicate.
Absorbance spectra of anthocyanin isolates subjected to pyruvic acid treatment was collected using a SpectraMax 190 microplate reader (Molecular Devices, Sunnyvale, Calif., U.S.). Sample aliquots (75 μL) were loaded in a 96-well plate (poly-D-lysine coated polystyrene). Samples were evaluated from 380 to 780 nm in 1 nm intervals. The blank consisted of the same acidified pH 2.5 water solution used to dilute pigment samples. Spectra were collected on day 0, 7, 14, and 31. Spectrophotometric data of the samples was used to correlate with pyranoanthocyanins formation.

[3] = Colorimetry (CIEL*c*h*, ΔE2000) of anthocyanin isolates treated with pyruvic acid, 31 days storage; settings: for ΔL* / Δc*: day 0 to day 31; for total color change (ΔE): day 0 vs day 31, Delta E2000; for increase in hue angle: over 31 days
Description: as §1
Colorimetric data of samples was calculated from spectra of samples collected from the plate reader with ColorBySpectra. Absorbance data was obtained and conversion to color values was achieved using the following settings: regular transmission, D65 illuminant, and 10° observer angle. Values reported are in the CIEL*c*h* scale. After storage for 31 days, the mathematical differences in color (ΔE) were calculated according to the CIE-L*a*b* Delta E2000 equation. Colorimetric data of the samples containing pyruvic acid was used to correlate with pyranoanthocyanins formation. Spectral absorbance data of the peaks of the anthocyanins and their respective pyranoanthocyanins were also collected from the PDA during uHPLC analyses and converted to colorimetric data using ColorBySpectra under the settings described above. The spectra was obtained from the time of elution of the target compound and then standardized to an absorbance of 1.0 at λvis-max.

| Compound | decrease in maximum absorbance [2] | total color change (ΔE) [3] | also measured |
| --- | --- | --- | --- |
| Oc1cc(O)c2cc(O[C@@H]3OC[C@H](O)[C@H](O)[C@H]3O)c(-c3ccc(O)c(O)c3)[o+]c2c1 [cy3ara, cyanidin-3-arabinoside] | 71% | 16.4 | anthocyanin survival of control treatment [1]: 66%; shift of λvis-max of solution ([2]; pyruvic acid treated, pH 2.5, by day 31): bathochromic shift; ΔL* [3]: 10.2; Δc* [3]: −42.5 |
| OC[C@H]1O[C@@H](Oc2cc3c(O)cc(O)cc3[o+]c2-c2ccc(O)c(O)c2)[C@H](O)[C@@H](O)[C@@H]1O [cy3glu, cyanidin-3-glucoside] |  | 7.2 | anthocyanin survival of control treatment [1]: 49% |
| OC[C@H]1O[C@@H](OC[C@H]2O[C@@H](Oc3cc4c(O)cc(O)cc4[o+]c3-c3ccc(O)c(O)c3)[C@H](O)[C@@H](O)[C@H]2O)[C@H](O)[C@@H](O)[C@@H]1O [cy3glugal, cyanidin-3-(glucosyl)galactoside] | 26% | 3.6 | ΔL* [3]: 1.8; increase in hue angle [3]: 0.5 ° |
| C[C@@H]1O[C@@H](OC[C@H]2O[C@@H](Oc3cc4c(O)cc(O)cc4[o+]c3-c3ccc(O)c(O)c3)[C@H](O)[C@@H](O)[C@@H]2O)[C@H](O)[C@H](O)[C@H]1O [cy3rut, cyanidin-3-rutinoside] | 30% | 4.9 | Δc* [3]: −9.7; increase in hue angle [3]: 1.1 ° |
| OC[C@H]1O[C@@H](Oc2cc(O)cc3[o+]c(-c4ccc(O)c(O)c4)c(O[C@@H]4O[C@H](CO)[C@@H](O)[C@H](O)[C@H]4O[C@@H]4O[C@H](CO)[C@@H](O)[C@H](O)[C@H]4O)cc23)[C@H](O)[C@@H](O)[C@@H]1O [cy3soph5glu, cyanidin-3-sophoroside-5-glucoside] |  | 9.7 | initial L* ([3]; pH 2.5, day 0): 87.5 |
| OCC1O[C@@H](Oc2cc3c(O)cc(O)cc3[o+]c2-c2ccc(O)c(O)c2)C(O[C@@H]2OC(CO)[C@@H](O)C(O)[C@H]2O)C(O)[C@@H]1O (stereo partly drawn) [cy3soph, cyanidin-3-sophoroside] |  | 9.2 |  |
| OC[C@H]1O[C@@H](Oc2cc3c(O)cc(O)cc3[o+]c2-c2ccc(O)c(O)c2)[C@H](O[C@@H]2OC[C@@H](O)[C@H](O)[C@H]2O)[C@@H](O)[C@H]1O [cy3xylgal, cyanidin-3-(xylosyl)galactoside] |  | 7.8 |  |
| OC[C@H]1O[C@@H](OC[C@H]2O[C@@H](Oc3cc4c(O)cc(O)cc4[o+]c3-c3ccc(O)c(O)c3)[C@H](O[C@@H]3OC[C@@H](O)[C@H](O)[C@H]3O)[C@@H](O)[C@H]2O)[C@H](O)[C@@H](O)[C@@H]1O [cy3xylglugal, cyanidin-3-(xylosylglucosyl) galactoside] |  | 8.3 |  |
